Patent publication US4914189A, “Synthetic GHRH analogs” (The Adminstrators of the Tulane Educational Fund, priority 1987, dated 1990)
Several values for one entry are separate records, joined by “and”; a condition that tells them apart may be missing. Equal values may be shown once.

Experiments:
[1] = tested on: release of GH; experiment: In vivo release of GH in male testosterone primed rats, 4-point assay method; set-up: species or system rat; conditions: i.v., individual values
Procedure: In vivo effect of synthetic GHRH analogs on the release of
GH in male testosterone primed rats. Results were
calculated by the 4-point assay method.
Doses injected are in μg/100 g. b.w., i.v.

[2] = tested on: release of pituitary GH; experiment: In vivo release of pituitary GH after one single i.v. injection in female rats; set-up: species or system rat; conditions: for Relative Potency (based on the effect of hpGHRH at the actual time) / Responses in plasma GH in ng GH/ml: 1.0 ug/(female) rat i.v.; for Absolute Potency (based on the average value of the four samples at -1 min.): average GH level at -1 min. 63.5 ng GH/ml plasma
Procedure: Adult female rats were used and were anesthetized with pentobarbital (6 mg/100 g, b.w.), injected i/p. 20 minutes after the injection of pentobarbital; blood samples were taken from the jugular vein (pretreated level) and immediately thereafter hpGH-RH^1-29 (as a control) or GH-RH^1-29 analogs were injected i.v. Blood samples were taken from the jugular vein 5, 15, 60 minutes after the injection. The blood samples were centrifuged, plasma was removed and the GH level was measured by RIA.
In vivo Effects of synthetic GHRH analogs on the release
of pituitary GH following one single i.v. injection of 1.0

[3] = tested on: superfused pituitary cell system; experiment: In vitro GH release, superfused pituitary cell system; assay type: cell-based, rat
Procedure: The compounds of the present invention were tested both in vitro in rat cell culture and in vivo in rats to determine GHRH activity. The protocols are as follows:
Twenty-four adult male or female Sprague-Dawley strain rats were decapitated for each experiment. After posterior lobes were removed, the anterior pituitaries were cut into small pieces and incubated in a Dubnoff incubator for 45 minutes at 37° C. in 10 ml. of oxygenated Medium 199 (GIBCO) containing 0.5% collagenase (Sigma Type 1), 0.25% bovine serum albumin (BSA) (Sigma RIA grade), and 5 μg./ml. Gentamicin Sulphate (Sigma). After this incubation, there were no apparent changes in the appearance of the tissue. However, the fragments could be easily dipsersed into single cells by repeated suction and expulsion from a Gilson Pipetman. After 30 to 60 Pipetman operations, the tissue fell apart; a second collagenase incubation was not usually necessary. The cell suspension was centrifuged at room temperature for 10 minutes at […]. The cell pellet was then resuspended in 1.0 ml. of medium. A small aliquot was diluted for counting the cells, and the rest or one suspension was divided into 2 equal volumes. Each volume (containing about 5× 10^6 cells, usually between 3.5 and 7.0×10^6) was mixed with 0.5 ml. Sephadex G-15 which had been equilibrated with previously oxygenated medium. The mixture of pituitary cells and Sephadex was transferred into 2 chambers of the superfusion apparatus and perfused with the medium. […]
ACTH radioimmunoassays were performed on 100 μl aliquots of undiluted superfusion medium essentially as described elsewhere (14); however, the separation of bound and free ACTH was accomplished by a polyethylene glycol facilitated second antibody method. Rat GH was measured in aliquots of undiluted or diluted superfusates to determine either basal or stimulated secretion. […]

GH-RH^1-29: standard/control: fragment of the first 29 residues of human growth hormone releasing factor, amide
plasma Gh level ([1]; 5 minutes after injection, dose 0.05 μg/100 g. b.w.): 160 ng·mL and 540 ng·mL and 208 ng·mL and 191 ng·mL and 450 ng·mL and 286 ng·mL and 397 ng·mL | plasma Gh level ([1]; 5 minutes after injection, dose 0.2 μg/100 g. b.w.): 370 ng·mL and 620 ng·mL and 540 ng·mL and 610 ng·mL and 870 ng·mL and 410 ng·mL and 560 ng·mL | plasma Gh level ([1]; 15 minutes after injection, dose 0.05 μg/100 g. b.w.): 65 ng·mL and 241 ng·mL and 97 ng·mL and 70 ng·mL and 161 ng·mL and 145 ng·mL and 149 ng·mL | plasma Gh level ([1]; 15 minutes after injection, dose 0.2 μg/100 g. b.w.): 112 ng·mL and 280 ng·mL and 199 ng·mL and 261 ng·mL and 510 ng·mL and 161 ng·mL and 207 ng·mL | Relative Potency (based on the effect of hpGHRH at the actual time) ([2]; time +5 min): 100% | Responses in plasma GH in ng GH/ml ([2]; time +5 min): 248 ng/mL | Absolute Potency (based on the average value of the four samples at -1 min.) ([2]; time +5 min): 390% | Relative Potency (based on the effect of hpGHRH at the actual time) ([2]; time +15 min): 100% | Responses in plasma GH in ng GH/ml ([2]; time +15 min): 137 ng/mL | Absolute Potency (based on the average value of the four samples at -1 min.) ([2]; time +15 min): 215% | Relative Potency (based on the effect of hpGHRH at the actual time) ([2]; time +60 min): 100% | Responses in plasma GH in ng GH/ml ([2]; time +60 min): 29 ng/mL | Absolute Potency (based on the average value of the four samples at -1 min.) ([2]; time +60 min): 45% | Relative Potency (based on the effect of hpGHRH at the actual time) ([2]; time -1 min (pretreated level)): 100% | Responses in plasma GH in ng GH/ml ([2]; time -1 min (pretreated level)): 66 ng/mL | Absolute Potency (based on the average value of the four samples at -1 min.) ([2]; time -1 min (pretreated level)): 103% | Released GH Level Average ([3]; peptides administered for 3 minutes at 10M^-9 Concentration): 40.00 ng/mL | Released GH Level ([3]; peptides administered for 3 minutes at 10M^-9 Concentration, individual values): 62.50 ng/mL and 42.50 ng/mL and 20.50 ng/mL and 34.50 ng/mL | Potency % ([3]; relative to GH-RH^1-29 standard, 3 minutes at 10M^-9 Concentration): 100%
